The source of these data is PMC10113271, “Rational peptide design for inhibition of the KIX–MLL interaction” (Scientific Reports, 2023).

Like-named read-outs stand apart in the source and are kept apart here. Where a SMILES comes first, the peptide text is derived from it. Where no end group is shown, it is not given here.

One assay has as its target T1, KIX (Mus musculus, UniProt P45481).
T1 construct: The DNA fragment of KIX (residues 586–672 of mouse CBP); 6xHis-tag with thrombin cleavage site (N); made in house; host or cells: E. coli BL21(DE3)pLysS
The experiment in a line: KIX binding by isothermal titration calorimetry (ITC). The settings on record: 30 °C; for N (stoichiometry of binding): pH 7.0, mean ± standard error of triplicate or more; for − TΔS: entropy term upon KIX binding, pH 7.0, ΔS=(ΔH-ΔG)/T, mean ± standard error of triplicate or more. On the procedure:
For the expression of MLL TAD, E. coli BL21(DE3) competent cells were transformed with the plasmid and cultivated at 37 °C in 2 × YT liquid medium supplemented with ampicillin. When an optical density at 600 nm (OD600) of the cell culture reached 0.7–0.8, 1 mM isopropyl β-D-1-thiogalactopyranoside was added to induce protein expression. After 4 h of cultivation, the cells were harvested by centrifugation. The E. coli cell pellet was suspended with buffer HP (50 mM sodium phosphate [pH 7.4], 300 mM NaCl, 10 mM imidazole, and 6 M guanidine hydrochloride). The sonicated lysate was centrifuged at 4 °C, and the supernatant was filtered using a membrane filter and applied to a gravity column (50 mL) containing 5 mL of nickel-nitrilotriacetic acid (Ni–NTA) resin (Qiagen, Hilden, Germany). The column was washed with buffer HP and buffer AP (50 mM sodium phosphate [pH 7.4], 300 mM NaCl, and 10 mM imidazole) to remove impurities. To elute His-tag–GB1–MLL TAD for ITC and SPR measurements, 40 mL of buffer EP (50 mM sodium phosphate [pH 7.4], 300 mM NaCl, and 250 mM imidazole) was added to the column. […] Thus, His-tag–GB1–MLL TAD was used in the ITC measurements, with the exception of the four mutants (I2849L, D2851L, K2855R, and T2857I). To obtain the MLL TAD peptide without His-tag–GB1 for CD measurements, we washed the column, to which the His-tag–GB1–MLL TAD was attached, with buffer TP (50 mM sodium phosphate [pH 7.4] and 300 mM NaCl), added 150 units of thrombin to the column for digestion of the His-tag–GB1, and eluted the MLL TAD peptide with buffer TP. After Ni–NTA column purification, anion exchange chromatography was performed to further purify the aforementioned four mutants without His-tag–GB1 using the AKTAprime plus chromatography system (Cytiva, Marlborough, MA, USA; 10 mM sodium phosphate [pH 6.0] and 0–1 M NaCl). Due to the fact that the CD spectra of the four mutants were unchanged before and after the anion exchange chromatography, we omitted this procedure for other mutants.
Expression and purification of the KIX protein was performed in the same way as MLL, except that E. coli BL21(DE3)pLysS competent cells and 2 × YT liquid medium with ampicillin and chloramphenicol were used. After Ni–NTA column purification, gel filtration chromatography was performed using a Superdex 200 pg column (Cytiva) and the ITC buffer (20 mM Tris–acetate [pH 7.0] and 50 mM NaCl).
ITC measurements were performed using MicroCal iTC200 (Malvern Panalytical Ltd., Malvern, United Kingdom) at 30 °C. Samples were sufficiently dialyzed with the ITC buffer before measurements. The 600 μM MLL solution was titrated into the cell containing 45 µM KIX. The data were analyzed using the Origin 7 software (OriginLab Corp., Northampton, MA, USA; https://www.originlab.com) to obtain the Kd (M), ΔH (kcal/mol), and stoichiometry of binding, N. The ΔG (kcal/mol) and ΔS (kcal/mol/K) were obtained as follows:2 ΔG=-RTln1/Kd 3 ΔS=ΔH-ΔG/T where R is the gas constant, and T is the temperature.
(In general: Isothermal titration calorimetry measures the heat released or taken up as one component is titrated into another.)

The test system of another assay is KIX–MLL interaction. The settings on record: cited from earlier work. On the procedure:
Previous studies have reported several inhibitors that bind the MLL site of KIX, including isoxazolidine derivatives, which are small molecule compounds that mimic the function of the TADs of transcriptional activators, and natural products such as sekikaic acid and lobaric acid[21],[22]. […] However, the EC50 and IC50 values of these small molecule inhibitors are 10- to 100-fold larger than the Kd for the KIX–MLL interaction (2.02 ± 0.04 μM).

Where [1] appears, read: inhibition of the KIX–MLL interaction.

T1 sequence (P45481 586-672): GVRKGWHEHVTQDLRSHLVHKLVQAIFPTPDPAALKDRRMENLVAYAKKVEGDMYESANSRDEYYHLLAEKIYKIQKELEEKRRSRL

`CC[C@H](C)[C@H](NC(=O)[C@H](CC(=O)O)NC(=O)[C@H](CO)NC(=O)[C@@H]1CCCN1C(=O)[C@H](CC(C)C)NC(=O)[C@@H](NC(=O)[C@H](CC(N)=O)NC(=O)CN)[C@@H](C)CC)C(=O)N[C@@H](CCSC)C(=O)N[C@@H](CC(C)C)C(=O)N[C@@H](Cc1ccccc1)C(=O)N[C@H](C(=O)N[C@@H](CC(C)C)C(=O)N[C@@H](CCCCN)C(=O)N[C@@H](CC(N)=O)C(=O)N[C@H](C(=O)N1CCC[C@H]1C(=O)N[C@@H](CO)C(=O)N[C@@H](CCSC)C(=O)N[C@@H](CCC(N)=O)C(=O)N[C@@H](C)C(=O)N[C@@H](CC(C)C)C(=O)NCC(=O)N[C@@H](CCC(=O)O)C(=O)N[C@@H](CO)C(=O)N1CCC[C@H]1C(=O)N[C@@H](CCC(=O)O)C(=O)N[C@@H](CO)C(=O)N[C@@H](Cc1ccc(O)cc1)C(=O)O)[C@@H](C)O)C(C)C` [D2851L] (H-GNILPSDIMLFVLKNTPSMQALGESPESY-OH; N-terminus and C-terminus assumed): on KIX, the “N (stoichiometry of binding)” value was 1.020 ± 0.006 and the “− TΔS” value turned out to be 1.4 ± 0.4 kcal/mol.

Consider `CC[C@H](C)[C@H](NC(=O)[C@H](CC(N)=O)NC(=O)CN)C(=O)N[C@@H](CC(C)C)C(=O)N1CCC[C@H]1C(=O)N[C@@H](CO)C(=O)N[C@@H](CC(=O)O)C(=O)N[C@@H](CC(C)C)C(=O)N[C@@H](CCSC)C(=O)N[C@@H](CC(=O)O)C(=O)N[C@@H](Cc1ccccc1)C(=O)N[C@H](C(=O)N[C@@H](CC(C)C)C(=O)N[C@@H](CCCCN)C(=O)N[C@@H](CC(N)=O)C(=O)N[C@H](C(=O)N1CCC[C@H]1C(=O)N[C@@H](CO)C(=O)N[C@@H](CCSC)C(=O)N[C@@H](CCC(N)=O)C(=O)N[C@@H](C)C(=O)N[C@@H](CC(C)C)C(=O)NCC(=O)N[C@@H](CCC(=O)O)C(=O)N[C@@H](CO)C(=O)N1CCC[C@H]1C(=O)N[C@@H](CCC(=O)O)C(=O)N[C@@H](CO)C(=O)N[C@@H](Cc1ccc(O)cc1)C(=O)O)[C@@H](C)O)C(C)C` [I2849L] (H-GNILPSDLMDFVLKNTPSMQALGESPESY-OH; N-terminus and C-terminus assumed), for which, on KIX, the “N (stoichiometry of binding)” value came to 0.947 ± 0.008 and the “− TΔS” value was 4.6 ± 0.2 kcal/mol.

Take `CC[C@H](C)[C@H](NC(=O)[C@H](CC(=O)O)NC(=O)[C@H](CO)NC(=O)[C@@H]1CCCN1C(=O)[C@H](CC(C)C)NC(=O)[C@@H](NC(=O)[C@H](CC(N)=O)NC(=O)CN)[C@@H](C)CC)C(=O)N[C@@H](CCSC)C(=O)N[C@@H](CC(=O)O)C(=O)N[C@@H](Cc1ccccc1)C(=O)N[C@H](C(=O)N[C@@H](CC(C)C)C(=O)N[C@@H](CCCNC(=N)N)C(=O)N[C@@H](CC(N)=O)C(=O)N[C@H](C(=O)N1CCC[C@H]1C(=O)N[C@@H](CO)C(=O)N[C@@H](CCSC)C(=O)N[C@@H](CCC(N)=O)C(=O)N[C@@H](C)C(=O)N[C@@H](CC(C)C)C(=O)NCC(=O)N[C@@H](CCC(=O)O)C(=O)N[C@@H](CO)C(=O)N1CCC[C@H]1C(=O)N[C@@H](CCC(=O)O)C(=O)N[C@@H](CO)C(=O)N[C@@H](Cc1ccc(O)cc1)C(=O)O)[C@@H](C)O)C(C)C` [K2855R] (H-GNILPSDIMDFVLRNTPSMQALGESPESY-OH; N-terminus and C-terminus assumed): at KIX, the “N (stoichiometry of binding)” value was 0.94 ± 0.02 and the “− TΔS” value was 5.7 ± 0.4 kcal/mol.

As for `O=C(Nc1ccc(Cl)cc1)c1cc2ccccc2cc1OP(=O)(O)O` [KG-501], in the assay with KIX–MLL interaction (small molecule inhibitor of the KIX–MLL interaction), the IC50 was 200 ± 10 µM.

For the compound `CC[C@H](C)[C@H](NC(=O)[C@H](CC(=O)O)NC(=O)[C@H](CO)NC(=O)[C@@H]1CCCN1C(=O)[C@H](CC(C)C)NC(=O)[C@@H](NC(=O)[C@H](CC(N)=O)NC(=O)CN)[C@@H](C)CC)C(=O)N[C@@H](CCSC)C(=O)N[C@@H](CC(=O)O)C(=O)N[C@@H](Cc1ccccc1)C(=O)N[C@H](C(=O)N[C@@H](CC(C)C)C(=O)N[C@@H](CCCCN)C(=O)N[C@@H](CC(N)=O)C(=O)N[C@H](C(=O)N1CCC[C@H]1C(=O)N[C@@H](CO)C(=O)N[C@@H](CCSC)C(=O)N[C@@H](CCC(N)=O)C(=O)N[C@@H](C)C(=O)N[C@@H](CC(C)C)C(=O)NCC(=O)N[C@@H](CCC(=O)O)C(=O)N[C@@H](CO)C(=O)N1CCC[C@H]1C(=O)N[C@@H](CCC(=O)O)C(=O)N[C@@H](CO)C(=O)N[C@@H](Cc1ccc(O)cc1)C(=O)O)[C@@H](C)CC)C(C)C` [T2857I] (H-GNILPSDIMDFVLKNIPSMQALGESPESY-OH; N-terminus and C-terminus assumed), on KIX, the “N (stoichiometry of binding)” value was found to be 1.043 ± 0.003 and the “− TΔS” value is recorded as 2.21 ± 0.08 kcal/mol.

Turning to `CCCCCc1c2c(cc(O)c1C(=O)O)OC(=O)c1c(cc(OC)cc1C(=O)CCCC)O2` [lobaric acid], the IC50 in the assay on KIX–MLL interaction (setting [1]) is 17 µM.

Take `CCCc1cc(OC)cc(O)c1C(=O)Oc1c(OC)cc(CCC)c(C(=O)O)c1O` [sekikaic acid]: the IC50 with KIX–MLL interaction (setting [1]) is 34 µM.

In the case of “K2855R / T2857L: K2855R/T2857L double mutant of the MLL TAD peptide ({His6-GB1}-GNILPSDIMDFVLRNLPSMQALGESPESY)”, in the assay with KIX, the “− TΔS” value is given as 1.5 ± 0.2 kcal/mol.

Regarding “K2855R / T2857W: K2855R/T2857W double mutant of the MLL TAD peptide ({His6-GB1}-GNILPSDIMDFVLRNWPSMQALGESPESY)”, the “− TΔS” value with KIX was 3.86 ± 0.05 kcal/mol.

In the case of “T2857A: T2857A mutant of the MLL TAD peptide (GNILPSDIMDFVLKNAPSMQALGESPESY; left off: His6, N-terminal, cleaved | GB1 (B1 domain of Streptococcal protein G), N-terminal, cleaved)”, the “− TΔS” value with KIX was 4.0 ± 0.2 kcal/mol.

“T2857F: T2857F mutant of the MLL TAD peptide (GNILPSDIMDFVLKNFPSMQALGESPESY; left off: His6, N-terminal, cleaved | GB1 (B1 domain of Streptococcal protein G), N-terminal, cleaved)”: the “− TΔS” value with KIX came out at 3.2 ± 0.3 kcal/mol.

Consider “T2857K: T2857K mutant of the MLL TAD peptide ({His6-GB1}-GNILPSDIMDFVLKNKPSMQALGESPESY)”, for which the “− TΔS” value in the assay with KIX was 4.4 ± 0.2 kcal/mol.

Turning to “T2857L: T2857L mutant of the MLL TAD peptide ({His6-GB1}-GNILPSDIMDFVLKNLPSMQALGESPESY)”, in the assay with KIX, the “− TΔS” value came to 2.6 ± 0.1 kcal/mol.

As for “T2857R: T2857R mutant of the MLL TAD peptide ({His6-GB1}-GNILPSDIMDFVLKNRPSMQALGESPESY)”, in the assay with KIX, the “− TΔS” value stood at 4.9 ± 0.3 kcal/mol.

“T2857W: T2857W mutant of the MLL TAD peptide, highest KIX affinity ({His6-GB1}-GNILPSDIMDFVLKNWPSMQALGESPESY)”: the “− TΔS” value in the assay with KIX is listed as 4.4 ± 0.1 kcal/mol.

“T2857Y: T2857Y mutant of the MLL TAD peptide ({His6-GB1}-GNILPSDIMDFVLKNYPSMQALGESPESY)”: the “− TΔS” value with KIX was 4.5 ± 0.2 kcal/mol.

What is called IC50 is the concentration needed to halve the response being measured.
